Results from patent US6747013B2, “Therapy for cellular accumulation in chronic inflammatory diseases” (The Regents of the University of California, priority 1995, dated 2004).
Numbered stars: 1 amine (or outer) side, 2 acyl side, 3 side chain; on linkers, the order of the positions; unused ones are H or OH. Bridge positions count the residues as written; N and C are the ends. Square brackets hold non-standard residues; d marks the D form. Peptide text beside a SMILES is read from it. I, II: the chains in the order shown. Actinocin(9to1) = Cc1c2oc3c(C)ccc(C(=O)[*:1])c3nc-2c(C(=O)[*:2])c(N)c1=O; NMeV = CN[C@H](C(=O)O)C(C)C; Sar = CNCC(=O)O

Columns and labels:
[1] = system: fibroblast-like synoviocytes (FLS); assay: ISEL assay of apoptosis (DNA fragmentation) in cultured fibroblast-like synoviocytes; assay type: cell-based, human; settings: for % apoptotic cells Without IFN-gamma (100 U/ml) / % apoptotic cells With IFN-gamma: FLS incubated with mediator for 16 h, n = 3, ISEL assay; for % apoptotic cells Without IFN-gamma (100 U/ml): 'Without IFN-gamma (100 U/ml)' [sic]; for % apoptotic cells With IFN-gamma: concentrations: IL-1 1 ng/ml, TNF-alpha 100 ng/ml, act D 0.5 ug/ml, anti-fas 80 ng/ml; for DNA fragmentation in FLS (ISEL assay), in words: cultured FLS in chamber slides, agent alone; for effect of combination on FLS apoptosis, in words: in combination with other apoptosis-inducing factors
Experimental: Fragmented DNA was detected in cell nuclei using a modification of previously described methods (Wood et a., Neuron., 11:621-32, 1993 and Wijsman et al., J. Histochem. Cytochem. 41:7-12, 1993). Frozen section of synovial tissue (5-6 microns thick) were placed onto poly-L-lysine coated slides and air dried for at least 2 hours. The tissue sections were then fixed with EtOH/Acetic acid 3:1 for 10 min at room temperature and washed with buffer 1 (see below) for 5 min. The slides were then air dried 1 or at least 2 h. 10-15 ul of DNA polymerase mix were added to each section and incubated at room temperature for 1 h. The sections were washed with buffer 1 (see below) for 5 min at room temperature followed by a wash in buffer 2 for 5 min.
Alkaline phosphatase conjugated anti-digoxigenin antibody was diluted to 1:500 in buffer 2 and 15-20 ul was applied to each specimen. The slides were incubated at 37° C. for 2 hrs in a humidified chamber and then washed with buffer 1 for 5 min. They were then equilibrated with buffer 3 for 5 min and the color reagent (NBT+BCIP) was added to the specimens. After about 30 min the slides were washed with distilled water, counterstained with eosin or methyl green and dehydrated with graded alcohol washes. The developing reagent gave a dark purple color for positive signals. Buffers: 10× DNA polymerase buffer=0.5M Tris.Cl pH7.5, 0.1M MgCl2, 1 mM DTT; 10× nucleotide mix=1 mM each of dATP, dCTP and dGTP, 0.4 mM dTTP; DNA polymerase mix=10× DNA pol buffer (2 ul), […] nucleotide mix (2 ul); 100 uM dig-11-dUTP (0.5 ul), Klenow polymerase (2 ul (2 U)), Water (13.5 ul); Buffer 1=100 mM Tris.Cl pH7.5, 150 mM NaCl; Buffer 2=0.5% Blocking agent in buffer 1, Buffer 3=100 […]. Quantification of ISEL assay. A semiquantitative scale was used to estimate the degree of ISEL staining in tissue sections that had been counterstained with methyl green to distinguish ISEL-positive and -negative cells. Four areas were reviewed by a blinded investigator: the synovial intimal lining, the sublining, blood vessels, and lymphoid aggregates. The extent of staining in the area was estimated and scored as using a previously established semiquantitative scale.
Synovial cells were isolated by enzymatic dispersion of synovial tissues as previously described (Alvaro-Gracia, et al., supra). Briefly, the tissues were minced and incubated with 1 mg/ml collagenase in serum-free DMEM (Gibco, Grand Island, N.Y.) for 2 h at 37° C., filtered through a nylon mesh, extensively washed, and cultured in DMEM supplemented with 10% fetal calf serum (FCS) (Gibco, endotoxin content <0.006 ng/ml), penicillin, streptomycin, and L-glutamine in a humidified 5% Co2 atmosphere. After overnight culture, non-adherent cells were removed and adherent cells were cultivated in DMEM plus 10% FCS.
At confluence, cells were trypsinized, split at a 1:3 ratio, and recultured in medium. Synoviocytes were used from passages 3 through 9 in these experiments, during which time they were a homogeneous population of fibroblast-like synoviocytes (FLS)(<1% CD11b, <1% phagocytic, and <1% Fc-gamma RII receptor positive).
(§1) The presence of CD68-negative apoptotic cells in the synovial lining prompted an analysis of the regulation of FLS apoptosis in vitro. […] Osteoarthritis and rheumatoid arthritis-derived FLS were equally susceptible to induction of DNA strand breaks.

[2] = system: Rheumatoid arthritis FLS; assay: 3HdTr nuclear fragmentation assay; assay type: cell-based, human; settings: FIG. 8; cytokines or antibodies 8 h, act D 4 h
Experimental: Rheumatoid arthritis FLS were seeded at 10^4 cells/well in a 96-well microtiter plate. The cells were cultured at 37° C. and 5% CO2 for 2 days. On the third day, 10 uCi/ml/well of 3HdTR was added to each well and incubated overnight. The cells were then treated with different concentrations of cytokines or antibodies for 8 h or actinomycin D (act D) for 4 h and then lysed by 2 rounds of freeze-thaw cycles. Lysed cells and media were aspirated onto fiber glass filters using a cell harvester. The filters were washed to remove unincorporated nucleotides and counted in a liquid scintillation counter. All points were done in triplicates. Percent specific fragmentation was calculated as follows: (S-E)×100/S, where E=retained cpms on the filter in the presence of cytokine and S=retained cpms on the filter in the medium control (Matzinger, P., J. Immunological Methods 145:185-92, 1991).
as §1

[3] = system: p53 in dermal fibroblasts; settings: after exposure to H2O2; before 5±11%
Experimental: (§2) The intracellular location of p53 protein is an important determinant of its functional capabilities. It is known that p53 can reside in the cytoplasm (generally bound to hsc70) but is transported to the nucleus after DNA damage or proliferative signals. […] Immunohistochemistry was then performed on cultured RA FLS to determine the subcellular localization of p53.

[4] = system: p53 in RA FLS; settings: 8-9 hr after stimulating with H2O2 for 100 min; n=3; medium alone 10.7±2.4%
Experimental: as §2

[5] = system: Fas on FLS; assay: Surface Fas expression on FLS by flow cytometry (FACS); assay type: cell-based, human; settings: IL-1beta 1 ng/ml or TNF-alpha 100 ng/ml for 16 to 24 hours; pooled RA and OA FLS
Experimental: FLS (1-2×105) were cultured in 6-well plastic dishes (Costar, Cambridge, Mass.) in DMEM-10% FCS. Cells were harvested with 5 mM EDTA at 4° C. and stained with anti-fas or control antibody (Kamiya Biomedical Co., Thousand Oaks, Calif.) as previously described (Alvaro-Gracia, et al., supra). Phycoerythrin conjugated Fab2 anti-mouse IgG (Tago Inc. Burlingame, Calif.) was used as a secondary antibody. An isotype matched MAb was used as negative control. Induction of Fas expression by cytokines was calculated from the mean fluorescence channels (MFC) as follows: relative MFC=(MF(Ccytokine-MFClgG)/(MFCmedium-MFClgG). A cell was defined a positive if its MFC was greater than 98% of cells stained with the control antibody. Statistical analysis. Data were analyzed using the paired Student t test and are presented as mean+SEM.
Since anti-fas antibody induced DNA fragmentation in FLS, fas expression was determined on these cells using flow cytometry. Many FLS constitutively expressed Fas protein on the cell surface (see FIG. 9 for a representative experiment (n=7; 4 rheumatoid arthritis and 3 osteoarthritis)). There were no significant differences between osteoarthritis and rheumatoid arthritis FLS with regard to the level of surface Fas expression on resting synoviocytes. […]

[6] = system: mouse air pouch tissue; assay: Mouse air pouch model of inflammation with TUNEL staining; assay type: in vivo; settings: 3 ml of 1% carrageenan into pouch, two days after injection
Experimental: In this standard model, mice were lightly anesthetized with halothane and 3 ml of sterile filtered air was injected subcutaneously into the back, forming a pocket. This procedure was repeated twice over the next 5 days to form a mature pouch. Subsequently, 3 ml of 1% carrageenan was injected into the pouches. Carrageenan is a highly inflammatory natural substance that, when injected into body cavities, induces leukocyte recruitment, cytokine gene expression, and release of a variety of small molecule mediators. Two days after carrageenan injection, the mice were sacrificed and the pouches were removed. The excised pouches were fixed in formaldehyde and histologic sections were prepared. The sections were subsequently stained using the TUNEL technique (Wood, et al., Neuron, 11:621, 1993) to identify cells with fragmented DNA that were undergoing apoptosis.

Cc1c2oc3c(C)ccc(C(=O)N[C@@H]4C(=O)N[C@H](C(C)C)C(=O)N5CCC[C@H]5C(=O)N(C)CC(=O)N(C)[C@@H](C(C)C)C(=O)O[C@@H]4C)c3nc-2c(C(=O)N[C@@H]2C(=O)N[C@H](C(C)C)C(=O)N3CCC[C@H]3C(=O)N(C)CC(=O)N(C)[C@@H](C(C)C)C(=O)O[C@@H]2C)c(N)c1=O [actinomycin D, reference compound] (I: T[dV]P[Sar][NMeV] / II: T[dV]P[Sar][NMeV]; ester I:1-I:C, II:1-II:C; linker I:N-II:N via Actinocin(9to1))
% apoptotic cells Without IFN-gamma (100 U/ml) [1]: 6 ± 3 %
% apoptotic cells With IFN-gamma [1]: 37 ± 5%
DNA fragmentation in FLS (ISEL assay), in words [1]: caused significant DNA fragmentation
DNA fragmentation in cultured FLS (3HdTr nuclear fragmentation), in words [2]: caused DNA fragmentation

OO [hydrogen peroxide]
% of dermal fibroblasts with nuclear p53 staining [3]: 75±17%
% of FLS with prominent nuclear p53 staining [4]: 70.7±12.8%

IL-1: Recombinant hIL-1 beta, cytokine purchased from Genzyme
% apoptotic cells Without IFN-gamma (100 U/ml) [1]: 0 ± 2 %
% apoptotic cells With IFN-gamma [1]: 50 ± 2%
DNA fragmentation in FLS (ISEL assay), in words [1]: caused significant DNA fragmentation
surface Fas expression on FLS, in words [5]: slight increase, the difference did not reach statistical significance
DNA fragmentation in cultured FLS (3HdTr nuclear fragmentation), in words [2]: caused DNA fragmentation

TNF-alpha
% apoptotic cells Without IFN-gamma (100 U/ml) [1]: 3 ± 2 %
% apoptotic cells With IFN-gamma [1]: 35 ± 1%
DNA fragmentation in FLS (ISEL assay), in words [1]: caused significant DNA fragmentation
effect of combination on FLS apoptosis, in words [1]: additive with actinomycin D
surface Fas expression on FLS, in words [5]: significantly increased surface Fas expression
DNA fragmentation in cultured FLS (3HdTr nuclear fragmentation), in words [2]: caused DNA fragmentation

carrageenan
TUNEL-positive cells in air pouch tissue, in words [6]: large foci of TUNEL-positive cells were present
inflammatory infiltration of the air pouch, in words [6]: an inflammatory exudate was present

B1: IFN-gamma: recombinant human IFN-gamma, cytokine purchased from Genzyme (protein, UniProt P01579 24-161, looked up)
Interferon gamma: QDPYVKEAENLKKYFNAGHSDVADNGTLFLGILKNWKEESDRKIMQSQIVSFYFKLFKNFKDDQSIQKSVETIKEDMNVKFFNSNKKKRDDFEKLTNYSVTDLNVQRKAIHELIQVMAELSPAAKTGKRKRSQMLFRG
% apoptotic cells Without IFN-gamma (100 U/ml) [1]: 6 ± 2%
DNA fragmentation in FLS (ISEL assay), in words [1]: minimal effect
effect of combination on FLS apoptosis, in words [1]: significantly reduced FLS apoptosis
